Experimental data as given in patent publication US7045280B2, “Assay method” (AstraZeneca AB, priority 1999, dated 2006).

Experiments:
Assay type in all cases: biochemical
tPA = biological target: T1, tPA (Homo sapiens, UniProt P00750); assay: tPA chromogenic substrate assay (Spectrozyme tPA, fibrin stimulator)
T1 construct: purchased Quadratech 821157
Description: (§1) Briefly, uPA (high molecular weight uPA Calbiochem, Cat. 627081), tpA (Quadratech, Cat. 821157) or plasmin (Quadratech, Cat. 810655) were diluted-in buffer comprising 0.5M tris HCl, 0.1% tween 20 pH 8.3. Urokinase activity was measured in a final volume of 100 μl containing 0.4 mM S2444 in assay buffer by following the increase in absorbance at 405 nm. The activity of tPA was measured in a final volume of 100 μl, containing 230 nM Spectrozyrne tPA substrate (American Diagnostica, Cat. 444L) and 40 μg per ml tPA stimulator (fibrin, Quadratech, Cat. 821116) and following the increase in absorbance at 405 nm. Plasmin activity was measured in a final volume of 100 μl containing 0.66 mM S2251, and following the increase in absorbance at 405 nm.

Plasmin = biological target: T2, Plasmin (Homo sapiens, UniProt P00747); assay: Plasmin chromogenic substrate assay (S2251)
T2 construct: purchased Quadratech 810655
T2 sequence (P00747 97-580 partner limits assumed): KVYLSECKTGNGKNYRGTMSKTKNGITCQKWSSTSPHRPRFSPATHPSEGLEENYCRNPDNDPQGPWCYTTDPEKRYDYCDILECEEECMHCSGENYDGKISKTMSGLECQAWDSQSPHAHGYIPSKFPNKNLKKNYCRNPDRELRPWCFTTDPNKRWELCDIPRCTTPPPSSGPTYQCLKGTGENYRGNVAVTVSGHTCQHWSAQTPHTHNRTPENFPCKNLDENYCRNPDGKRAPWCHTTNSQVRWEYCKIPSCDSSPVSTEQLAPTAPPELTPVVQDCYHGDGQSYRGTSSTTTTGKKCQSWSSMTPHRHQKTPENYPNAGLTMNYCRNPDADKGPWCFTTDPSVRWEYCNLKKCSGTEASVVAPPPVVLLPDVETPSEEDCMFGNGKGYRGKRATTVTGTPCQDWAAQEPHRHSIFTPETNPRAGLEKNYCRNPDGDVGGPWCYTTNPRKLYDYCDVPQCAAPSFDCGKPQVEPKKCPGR
T2 sequence (P00747 581-810 limits assumed): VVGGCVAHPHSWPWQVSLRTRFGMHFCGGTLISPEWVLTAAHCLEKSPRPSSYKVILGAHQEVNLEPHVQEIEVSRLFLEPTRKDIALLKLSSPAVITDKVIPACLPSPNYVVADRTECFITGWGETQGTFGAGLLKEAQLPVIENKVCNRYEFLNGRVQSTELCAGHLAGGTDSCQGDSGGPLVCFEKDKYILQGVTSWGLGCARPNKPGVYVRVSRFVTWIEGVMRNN
Description: as §1

uPA = biological target: T3, uPA (Homo sapiens, UniProt P00749); assay: uPA chromogenic substrate assay (S2444)
T3 construct: uPA (high molecular weight uPA Calbiochem, Cat. 627081); purchased Calbiochem 627081
Description: as §1

T1 sequence (P00750 36-562): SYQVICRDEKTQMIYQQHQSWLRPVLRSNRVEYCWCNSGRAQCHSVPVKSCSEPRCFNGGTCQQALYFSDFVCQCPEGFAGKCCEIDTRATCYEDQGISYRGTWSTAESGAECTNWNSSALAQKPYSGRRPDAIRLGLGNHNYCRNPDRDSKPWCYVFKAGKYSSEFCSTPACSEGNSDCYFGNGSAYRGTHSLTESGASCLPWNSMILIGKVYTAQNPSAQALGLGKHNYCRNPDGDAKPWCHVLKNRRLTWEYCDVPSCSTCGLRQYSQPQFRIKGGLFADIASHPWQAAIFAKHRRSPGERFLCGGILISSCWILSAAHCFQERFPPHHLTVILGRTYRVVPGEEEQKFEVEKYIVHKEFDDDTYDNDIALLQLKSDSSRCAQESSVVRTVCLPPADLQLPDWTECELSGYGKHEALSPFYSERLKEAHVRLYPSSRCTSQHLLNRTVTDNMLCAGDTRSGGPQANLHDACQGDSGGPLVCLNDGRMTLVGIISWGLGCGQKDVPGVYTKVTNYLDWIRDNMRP

SMILES: CC(C)[C@H](NC(=O)c1ccc(C(=O)NS(=O)(=O)c2ccc(Br)cc2)cc1)C(=O)N1CCC[C@H]1C(=O)N[C@H](C(=O)C(F)(F)F)C(C)C [elastase inhibitor, 3S-[4-[(4-bromophenyl)sulfonylaminocarbonyl]phenylcarbonyl]-L-valyl-N-[3-(1,1,1-trifluoro-4-methyl-2-oxopentyl)]-L-prolinamide]
- % inhibition (tPA; 100 μM elastase inhibitor, tPA (30 nM), Spectrozyme tPA substrate, 40 μg per ml tPA stimulator, absorbance at 405 nm): 9%
- inhibition of tPA activity (in words) (tPA; chromogenic substrate assay): did not significantly inhibit
- % inhibition (Plasmin; 100 μM elastase inhibitor, Plasmin (2.5 μg ml-1), 0.66 mM S2251, absorbance at 405 nm): 2%
- inhibition of plasmin activity (in words) (Plasmin; chromogenic substrate assay): did not significantly inhibit
- % inhibition (uPA; 100 μM elastase inhibitor, uPA (5 nM), 0.4 mM S2444, absorbance at 405 nm): 2%
- inhibition of uPA activity (in words) (uPA; chromogenic substrate assay): did not significantly inhibit
